Source: patent US20050209157A1, “Short bioactive peptides and methods for their use” (priority 2001, published 2005)
Like-named read-outs stand apart in the source and are kept apart here. No end group written: not given here.

What was measured:
[1] = system: Pseudomonas aeruginosa ATCC 9027; assay: Antimicrobial assay I, MIC by OD measurement; format: cell-based; details: 37° C. for 24 hours, absorbance 620 nm
[2] = system: Staphylococcus aureus ATCC 6538; assay: Antimicrobial assay I, MIC by OD measurement; format: cell-based; details: 37° C. for 24 hours, absorbance 620 nm
P. aeruginosa H374 [3] = format: cell-based, Pseudomonas aeruginosa; details: for MIC Cm-comb.: MIC of chloramphenicol with peptide at ¼ MIC; for MIC Nal-comb.: MIC of nalidixic acid with peptide at ¼ MIC; for FIC Index: 0.5 or less = synergy
Protocol: (§1) The synergistic effects of the inventive peptides with either chloramphenicol or nalidixic acid against efflux mutants of Pseudomonas aeruginosa were investigated. The MIC values were determined for either nalidixic acid or chloramphenicol alone as baselines. Peptides were added at their ¼ MIC concentration, and the concentration of either nalidixic acid or chloramphenicol to arrive at the MIC was determined. […] The fractional inhibitory concentration (FIC) index was used to determine synergy between peptides and antibiotics. Two-fold serial dilutions of antibiotic were tested in the presence of a constant amount of peptide, equal to one quarter of peptide MIC. The FIC index was determined as follows: FIC=0.25+MICantibiotic in combination/MICantibiotic alone. An FIC index of 0.5 or less is considered as synergy.

P. aeruginosa = format: cell-based, Pseudomonas aeruginosa; details: P. aeruginosa H744; MIC of nalidixic acid with peptide at ¼ MIC
Protocol: as §1

P. aeruginosa H774 = format: cell-based, Pseudomonas aeruginosa; details: P. aeruginosa H744; nalidixic acid + peptide at ¼ MIC; 0.5 or less = synergy
Protocol: as §1

in vitro [4] = details: human, WI38 normal lung fibroblast cells, 24 hours with peptide
Protocol: (§3) Viability of cells is determined by the dye response. In the following procedure, approximately 1.5×10^4 cells per well were added and viability was determined with the cells in a semi-confluent state. The assay was performed in a 96-well microtiter plate. After addition of peptide, the plate was set for 24 hours. MTT (5 mg/ml in phenol red-free RPMI-1640, 20 μl) was added to each well including positive control wells untreated with peptide. The plate was incubated at 37° C. for 4 hours. The liquid contents of each well was removed, and isopropanol with 0.1 M HCl (100 μl) was added to each well. The plate was sealed with parafilm to prevent evaporation of the isopropanol. The plate is allowed to rest for 5-10 minutes in order to solubilize the precipitate. Purified water (100 μl) was added to each well. Absorbance was determined with an ELISA Reader instrument. Color intensity at 540 nm is proportional to viability of cells.
(§4) WI38 (ATCC No. CCL75) is a normal fibroblast line of lung diploid cells, MCF7 (ATCC No. HTB22) is a breast adenocarcinoma tumor cell line, SW480 (ATCC No. CCL228) is a colon adenocarcinoma tumor cell line, BMKC is a cloned melanoma line derived from Bowes melanoma line HMCB (ATCC No. CRL9607), H1299 (ATCC No. CRL5803) is a lung large cell carcinoma tumor line, HeLaS3 (ATCC No. CCL2.2) is a cervical epitheleal carcinoma tumor cell line, and PC3 (ATCC No. CRL1435) is a prostate adenocarcinoma tumor cell line.

BMKC = assay: Anti-cancer assay, MTT, LD50; format: cell-based; details: BMKC cloned melanoma line, 24 hours with peptide
From the text: (§2) Numbers are LD50 values (μg/mL).

H1299 = assay: Anti-cancer assay, MTT, LD50; format: cell-based; details: 24 hours with peptide, lung large cell carcinoma
From the text: as §2

SW480 = assay: Anti-cancer assay, MTT, LD50; format: cell-based; details: SW480 colon adenocarcinoma line, 24 hours with peptide
From the text: as §2

PC3 = assay: Anti-cancer assay, MTT, LD50; format: cell-based; details: 24 hours with peptide, prostate adenocarcinoma
From the text: as §2

MCF7 = assay: Anti-cancer assay, MTT, LD50; format: cell-based; details: MCF7 breast adenocarcinoma line, MTT, 24 hours with peptide
From the text: as §2

HeLaS3 = assay: Anti-cancer assay, MTT, LD50; format: cell-based; details: 24 hours with peptide, cervical carcinoma
From the text: as §2

in vitro [5] = format: cell-based, human; details: human, human red blood cells, pH 7, hemolytic assay, concentration at 50% hemolysis, 1 hour at 37° C.; read-out: LD50
WI38 = details: MTT, 24 hours with peptide; normal fibroblast line
Protocol: as §3, §4

[6] = system: yeast (Saccharomyces cerevisiae); assay: Antimicrobial assay I, yeast assay in RPMI 1640; format: cell-based; details: RPMI 1640 media
E. coli UB1005 = format: cell-based, Escherichia coli; details: Table 14
S. epidermidis C621 = format: cell-based, Staphylococcus epidermidis; details: Table 15
[7] = system: Pseudomonas aeruginosa H187; format: cell-based; details: Table 15; in µg/mL
Candida albicans 105 = format: cell-based; details: Table 15; in µg/mL
S. typhimurium 14028S = format: cell-based, Salmonella typhimurium; details: Table 14
P. aeruginosa H374 [8] = format: cell-based, Pseudomonas aeruginosa; details: Table 14; in µg/mL
S. aureus (MRSA) = format: cell-based, Staphylococcus aureus; details: Table 15, strain SAP0017; in µg/mL
[9] = chloramphenicol + peptide at ¼ MIC
[10] = nalidixic acid + peptide at ¼ MIC, FIC=0.25+MIC comb/MIC alone
[11] = LD50 WI38, WI38 normal lung fibroblast line, MTT

Row | Substance | MIC E. coli UB1005 (E. coli UB1005) | MIC S. epidermidis C621 (S. epidermidis C621) | MIC P. aeruginosa H187 [7] | MIC C. albicans 105 (Candida albicans 105) | MIC S. typhimurium 14028S (S. typhimurium 14028S) | MIC P. aeruginosa H374 (P. aeruginosa H374 [8]) | MIC S. aureus SAP0017 (S. aureus (MRSA)) | also measured
1 | FAKKLAKKLAKLAL-NH2 [P45, FAKKLAKKLAKLAL-NH2] |  |  |  |  |  |  |  | paerug9027 (MIC) [1]: 100 µg/mL; staph6538 (MIC) [2]: 5 µg/mL; MIC Cm-comb. (P. aeruginosa H374 [3]): 16 µg/mL; MIC Nal-comb. (P. aeruginosa H374 [3]): 2500 µg/mL; FIC Index (P. aeruginosa H374 [3]; [9]): 1.25; FIC Index (P. aeruginosa H374 [3]; [10]): 0.75; MIC Nal-comb. (P. aeruginosa): 624 µg/mL; FIC Index (P. aeruginosa H774): 1.25; CC50 at 24 h (in vitro [4]; [11]): 200 µg/mL; LD50 BMKC (BMKC): 160 µg/mL; H1299 LD50 (H1299): 330 µg/mL; LD50 SW480 (SW480): 180 µg/mL; PC3 LD50 (PC3): 170 µg/mL; LD50 MCF7 (MCF7): 260 µg/mL; HeLaS3 LD50 (HeLaS3): 160 µg/mL; HC50 at 1 h (in vitro [5]): 700 µg/mL; WI38 LD50 (WI38): 200 µg/mL; yeast (MIC or MFC) [6]: 100 µg/mL
2 | FALALKALKKLKKALKKAL-NH2 [P27] |  |  |  |  |  |  |  | paerug9027 (MIC) [1]: 10 µg/mL; staph6538 (MIC) [2]: 10 µg/mL; FIC Index (P. aeruginosa H374 [3]; [9]): 0.75; FIC Index (P. aeruginosa H374 [3]; [10]): 0.25; FIC Index (P. aeruginosa H774): 1.25; CC50 at 24 h (in vitro [4]; [11]): 37 µg/mL; CC50 at 24 h (in vitro [4]; WI38 LD50, MTT, normal fibroblast line): 520 µg/mL; LD50 BMKC (BMKC): 44 µg/mL; LD50 SW480 (SW480): 26 µg/mL; LD50 MCF7 (MCF7): 14 µg/mL; HC50 at 1 h (in vitro [5]): 125 µg/mL; yeast (MIC or MFC) [6]: 25 µg/mL
3 | GIGKFLHAAKKFAKAFVAEIMNS-NH2 [P300, reference compound] |  |  |  |  |  |  |  | MIC Cm-comb. (P. aeruginosa H374 [3]): 16 µg/mL; MIC Nal-comb. (P. aeruginosa H374 [3]): 312 µg/mL; MIC Nal-comb. (P. aeruginosa): 156 µg/mL; CC50 at 24 h (in vitro [4]; [11]): 52 µg/mL; LD50 BMKC (BMKC): 130 µg/mL; H1299 LD50 (H1299): 60 µg/mL; LD50 SW480 (SW480): 60 µg/mL; PC3 LD50 (PC3): 45 µg/mL; LD50 MCF7 (MCF7): 22 µg/mL; HeLaS3 LD50 (HeLaS3): 125 µg/mL; HC50 at 1 h (in vitro [5]): 250 µg/mL; WI38 LD50 (WI38): 52 µg/mL
4 | FAKLLAKAFKKAL-NH2 [P114 (78)] | 32 µg/mL | 64 µg/mL | >128 | 64 | 128 µg/mL | >128 | >128 | 
5 | MPKEKVFLKIEKMGRNIRN-NH2 [P107 (71)] | > 128 µg/mL | > 128 µg/mL | >128 | >128 | > 128 µg/mL | >128 | >128 | 
6 | FAKLLAKLAKKEL-NH2 [P126 (88)] | > 128 µg/mL | > 128 µg/mL | >128 | >128 | > 128 µg/mL | >128 | >128 | 
7 | FAKLLAKLAKKFAL-NH2 [P120 (82)] | > 128 µg/mL | > 128 µg/mL | >128 | 64 | > 128 µg/mL | 128 | >128 | 
8 | FAKGVGKVGKKAL-NH2 [P137 (99)] | > 128 µg/mL | > 128 µg/mL | >128 | >128 | > 128 µg/mL | >128 | >128 | 
9 | FALLKALKKAL-NH2 [P171 (132)] | 32 µg/mL | 128 µg/mL | >128 | >128 | > 128 µg/mL | >128 | >128 | 
10 | FAKLLAKLAKAKG-NH2 [P96 (62)] | > 128 µg/mL | > 128 µg/mL | >128 | >128 | > 128 µg/mL | >128 | >128 | 
11 | FAKLLAKLAK-NH2 [P123 (85)] | 64 µg/mL | 16 µg/mL | >128 | 64 | > 128 µg/mL | >128 | >128 | 
12 | FAKLLAKLAKKAA-NH2 [P93 (59)] | 128 µg/mL | > 128 µg/mL | >128 | 64 | > 128 µg/mL | 128 | >128 | 
13 | FAKLLFKALKKAL-NH2 [P112 (76)] | > 128 µg/mL | 64 µg/mL | >128 | 128 | > 128 µg/mL | >128 | >128 | 
14 | FAFAKIIAKIAKKII-NH2 [P140 (102)] | > 128 µg/mL | > 128 µg/mL | >128 | >128 | > 128 µg/mL | >128 | >128 | 
15 | FAKIIAKIAKIAKKIL-NH2 [P139 (101)] | 64 µg/mL | 64 µg/mL | 128 | 128 | > 128 µg/mL | >128 | >128 | 
